Results on 28 molecules are retold here after patent US10961200B2, “Small molecule inhibitors of lactate dehydrogenase and methods of use thereof” (THE UNITED STATES OF AMERICA, AS REPRESENTED BY THE …, priority 2014, dated 2021).

pIC50: −log10 of the molar value. Where only a bound is given, the exact number is not on record here.

One experiment has as its target Human LDHA (Homo sapiens (Human), UniProt P00338). In words: human LDHA primary biochemical assay (resazurin/diaphorase coupled, fluorescence). Particulars: LDHA inhibitory activity, activity level based on IC50 (Table 7). From the text: Test compounds were placed in a Greiner Bio-One (Monroe, N.C.) 1536-well black solid bottom assay plate. 200 millimolar (mM) Tris HCl, pH 7.4, 100 micromolar […] EDTA and 0.01% TWEEN-20™, final concentration, was used as the assay buffer. The LDHA reagent was 2 nanomolar (nM) Human LDHA (Meridian Life Science, Inc., Memphis, Tenn.), final concentration, in assay buffer.
Background: Alamar Blue is a resazurin reagent that responds to reducing activity.
For `Cc1ccc(-c2nn(-c3nc(C(=O)O)cs3)cc2Cc2ccc(S(N)(=O)=O)cc2)cc1-c1ccccc1` [Compound 491, 2-(3-(6-methyl-[1,1′-biphenyl]-3-yl)-4-(4-sulfamoylbenzyl)-1H-pyrazol-1-yl)thiazole-4-carboxylic acid], the negative logarithm of the IC50 (pIC50) (commonly −log10 of the IC50, conventionally taken in molar units) is 6.00 to 7.00.

`Cc1ccc(-c2cc(-c3nn(-c4nc(C(=O)O)cs4)cc3Cc3ccc(S(N)(=O)=O)cc3)ccc2F)cc1F` [Compound 520, 2-(3-(3′,6-difluoro-4′-methyl-[1,1′-biphenyl]-3-yl)-4-(4-sulfamoylbenzyl)-1H-pyrazol-1-yl)thiazole-4-carboxylic acid]: the pIC50 is 6.00 to 7.00. `NS(=O)(=O)c1ccc(Cc2c(-c3cccc4cc(F)ccc34)nn(-c3nc(C(=O)O)cs3)c2O)cc1` [Compound 454, 2-(3-(6-fluoronaphthalen-1-(57%)yl)-5-hydroxy-4-(4-sulfamoylbenzyl)-1H-pyrazol-1-yl)thiazole-4-carboxylic acid] showed a negative-log IC50 (pIC50) of 4.24 to 6.00. Consider `CCCC#Cc1cc(-c2nn(-c3nc(C(=O)O)cs3)c(CC3CC3)c2Cc2ccc(S(N)(=O)=O)c(F)c2)ccc1F` [Compound 539, 2-(5-(cyclopropylmethyl)-3-(4-fluoro-3-(pent-1-yn-1-yl)phenyl)-4-(3-fluoro-4-sulfamoylbenzyl)-1H-pyrazol-1-yl)thiazole-4-carboxylic acid], for which the pIC50 is above 7.00. Molecule `NS(=O)(=O)c1ccc(Cc2cn(-c3nc(C(=O)O)cs3)nc2-c2ccc(F)c(-c3ccc(F)c(F)c3)c2)cc1` [Compound 517, 2-(4-(4-sulfamoylbenzyl)-3-(3′,4′,6-trifluoro-[1,1′-biphenyl]-3-yl)-1H-pyrazol-1-yl)thiazole-4-carboxylic acid] showed a pIC50 of 6.00 to 7.00.

Staying with this experiment, now noted: LDHA inhibitory activity, assay of Example 1; activity level classes.
`CCOC(=O)c1csc(-n2nc(-c3ccccc3)c(Oc3ccc(S(N)(=O)=O)cc3)c2C2CCCC2)n1` [Compound 169, ethyl 2-(5-cyclopentyl-3-phenyl-4-(4-sulfamoylphenoxy)-1H-pyrazol-1-yl)thiazole-4-carboxylate] had a pIC50 below 4.24.

On to `O=C(O)c1csc(-n2nc(-c3ccc(F)c(F)c3)cc2CO)n1` [Compound 64, 2-(3-(3,4-difluorophenyl)-5-(hydroxymethyl)-1H-pyrazol-1-yl)thiazole-4-carboxylic acid], for which the pIC50 is below 4.24.

`CCOC(=O)c1csc(-n2nc(-c3cccc(-c4ccccc4)c3)c(Cc3ccc(S(N)(=O)=O)cc3)c2C2CC2)n1` [Compound 181, ethyl 2-(3-([1,1′-biphenyl]-3-yl)-5-cyclopropyl-4-(4-sulfamoylbenzyl)-1H-pyrazol-1-yl)thiazole-4-carboxylate] showed a pIC50 below 4.24.

`CCOC(=O)c1csc(-n2nc(C3CCCCC3)c(Oc3ccc([S+](N)(=O)[O-])cc3)c2-c2ccccc2)n1` [Compound 273] gave a pIC50 below 4.24.

The molecule `COc1cc(-c2nn(-c3nc(C(=O)O)cs3)c(CC3CC3)c2Cc2ccc(S(N)(=O)=O)cc2)ccc1F` [Compound 278] gave a pIC50 above 7.00. `Cn1ncc(C(=O)n2nc(-c3ccccc3)c(Cc3ccc(S(N)(=O)=O)cc3)c2N)c1N` [Compound 143, 4-((5-amino-1-(5-amino-1-methyl-1H-pyrazole-4-carbonyl)-3-phenyl-1H-pyrazol-4-yl)methyl)benzenesulfonamide] showed a pIC50 below 4.24. On to `NS(=O)(=O)c1ccc(NCc2c(-c3ccccc3)n[nH]c2O)cc1` [Compound 49, 4-(((5-hydroxy-3-phenyl-1H-pyrazol-4-yl)methyl)amino)benzenesulfonamide], for which the pIC50 was below 4.24. Turning to `CCOC(=O)c1cccc(-n2nc(-c3ccccc3)c(Cc3ccc(S(N)(=O)=O)cc3)c2N)c1` [Compound 129, ethyl 3-(5-amino-3-phenyl-4-(4-sulfamoylbenzyl)-1H-pyrazol-1-yl)benzoate], the pIC50 is below 4.24. Same read-out and setting: with `CCOC(=O)c1csc(-n2nc(-c3ccccc3)c(Oc3ccc([S+](N)(=O)[O-])cc3)c2C2CCCCC2)n1` [Compound 274] the figure was below 4.24; with `CCOC(=O)c1csc(-n2nc(-c3ccc(F)c(-c4cccc(OC)c4)c3)c(Cc3ccc(S(N)(=O)=O)c(F)c3)c2C2CC2)n1` [Compound 248], below 4.24. Consider `NS(=O)(=O)c1ccc(Cc2c(-c3cccc(-c4ccccc4)c3)nn(-c3nc(C(=O)O)cs3)c2C2(C(F)(F)F)CC2)cc1` [Compound 299], for which the pIC50 was 4.24 to 6.00. On to `O=C(O)c1csc(-n2nc(-c3cccc(N4CCOCC4)c3)cc2O)n1` [Compound 93, 2-(5-hydroxy-3-(3-morpholinophenyl)-1H-pyrazol-1-yl)thiazole-4-carboxylic acid], for which the pIC50 was below 4.24. The molecule `NS(=O)(=O)c1ccc(Cc2c(-c3ccc(F)c(F)c3)nn(-c3nc(C(=O)O)cs3)c2C(F)(F)F)cc1` [Compound 39, 2-(3-(3,4-difluorophenyl)-4-(4-sulfamoylbenzyl)-5-(trifluoromethyl)-1H-pyrazol-1-yl)thiazole-4-carboxylic acid] had a pIC50 above 7.00. As to `Cc1ccc(-c2cccc(-c3nn(-c4nc(C(=O)O)cs4)c(CC4CC4)c3Cc3ccc(S(N)(=O)=O)cc3F)c2)cc1` [Compound 282], the pIC50 is above 7.00.

Staying with this experiment, now noted: read-out: Inhibitory activity IC50.
Turning to `O=C(O)c1csc(-n2nc(-c3ccccc3)cc2O)n1` [Compound 91, 2-(5-hydroxy-3-phenyl-1H-pyrazol-1-yl)thiazole-4-carboxylic acid], the pIC50 is below 4.24. For `Nc1c(Cc2ccc(S(N)(=O)=O)cc2)c(-c2ccccc2)nn1-c1cccc(C(=O)O)n1` [Compound 144, 6-(5-amino-3-phenyl-4-(4-sulfamoylbenzyl)-1H-pyrazol-1-yl)picolinic acid], the pIC50 is 4.24 to 6.00. As for `N[S+](=O)([O-])c1ccc(Cc2c(CC3CC3)nn(-c3nc(C(=O)O)cs3)c2-c2cccc(-c3ccccc3)c2)cc1F` [Compound 291], the pIC50 was 4.24 to 6.00. Turning to `NS(=O)(=O)c1ccc(Cc2cn(-c3nc(C(=O)O)cs3)c3c(F)cccc23)cc1` [Compound 202, 2-(7-fluoro-3-(4-sulfamoylbenzyl)-1H-indol-1-yl)thiazole-4-carboxylic acid], the pIC50 was 6.00 to 7.00.

As for `Cc1sc(-n2nc(-c3ccccc3)c(Cc3ccc(S(N)(=O)=O)cc3)c2N)nc1C(=O)O` [Compound 57, 2-(5-amino-3-phenyl-4-(4-sulfamoylbenzyl)-1H-pyrazol-1-yl)-5-methylthiazole-4-carboxylic acid], the pIC50 is 6.00 to 7.00. On the same count and under the same terms, as for `O=C(O)c1csc(-n2cc(Br)c(-c3cccc(-c4ccccc4)c3)n2)n1` [Compound 21, 2-(3-([1,1′-biphenyl]-3-yl)-4-bromo-1H-pyrazol-1-yl)thiazole-4-carboxylic acid], the figure is 4.24 to 6.00; as for `N[S+](=O)([O-])c1ccc(Cc2c(CC3CC3)nn(-c3nc(C(=O)O)cs3)c2-c2ccc(F)c(Br)c2)cc1` [Compound 295], 4.24 to 6.00.

As to `NS(=O)(=O)c1ccc(Cc2cn(-c3nc(C(=O)O)cs3)c3cccc(Cc4ccccc4F)c23)cc1` [Compound 198, 2-(4-(2-fluorobenzyl)-3-(4-sulfamoylbenzyl)-1H-indol-1-yl)thiazole-4-carboxylic acid], the pIC50 was 6.00 to 7.00. In the case of `NS(=O)(=O)c1ccc(Cc2cn(-c3nc(C(=O)O)cs3)c3ccc(Cc4ccccc4F)cc23)cc1` [Compound 194, 2-(5-(2-fluorobenzyl)-3-(4-sulfamoylbenzyl)-1H-indol-1-yl)thiazole-4-carboxylic acid], the pIC50 was 6.00 to 7.00.
